Results reported in US10722484B2, “Methods of cancer treatment” (K-Gen, Inc., priority 2016, dated 2020).

System: A549 lung cancer cell line
Test: Combination viability/proliferation assays (384-well IC50 ratio, 96-well MacSynergy II)
Assay type: cell-based
Details: for Ratio ([…] DMSO IC50/combination IC50): NC: no change; for effect in combination with the PKC activator compounds in inhibiting the growth of A549 cells: PKC activator compounds (K101A, K101E, K102); for Combination in A549: K101A (synergism/antagonism): agent assayed in combination with K101A; for Combination in A549: K101A (synergism/antagonism) / Combination in A549: K102 (synergism/antagonism): * 2-3 concentrations, # full concentration ranges; for Combination in A549: K101E (synergism/antagonism): agent assayed in combination with K101E; for Combination in A549: K102 (synergism/antagonism): agent assayed in combination with K102
Experimental: A 96-well MacSynergy II format for combination test was also used. […] The analysis was done with the SQRT(Data) scale and the four parameter Hill curve was fitted using XLfit5.1 (the MacSynergy II Excel Spreadsheet) for the inhibition data. Synergy (positive number) or Antagonism (negative number) volumes were calculated. […] Three-dimensional MacSynergy II graphs were generated where positive values indicated synergism and negative values indicated antagonism.

[1] = A549, in combination with 0.002 μM K102
[2] = A549, in combination with 0.02 μM K102
[3] = A549, in combination with 0.05 μM K101A
[4] = A549, in combination with 0.5 μM K101A, ratio >2 synergistic, <0.5 antagonistic
[5] = A549, in combination with 0.0002 μM K102
[6] = A549, in combination with 0.005 μM K101A

| Ratio ([…] DMSO IC50/combination IC50) [1] | Ratio ([…] DMSO IC50/combination IC50) [2] | Ratio ([…] DMSO IC50/combination IC50) [3] | Ratio ([…] DMSO IC50/combination IC50) [4] | Ratio ([…] DMSO IC50/combination IC50) (A549, in combination with […] K101E) | Ratio ([…] DMSO IC50/combination IC50) [5] | Ratio ([…] DMSO IC50/combination IC50) [6] | Compound | effect in combination with the PKC activator compounds in inhibiting the growth of A549 cells | Combination in A549: K101A (synergism/antagonism) (A549) | Combination in A549: K101E (synergism/antagonism) (A549) | Combination in A549: K102 (synergism/antagonism) (A549) | concentration range in which the antagonistic effect was detected (A549, with PKC activator compounds (FIG. 10A, 10B), trametinib full range tested, erlotinib lower half of range tested) [µM] | effect in combination with K101A or K102 in inhibiting the growth of A549 cells |
| --- | --- | --- | --- | --- | --- | --- | --- | --- | --- | --- | --- | --- | --- |
| >2 | >2 | >2 | >2 | >2 |  |  | CO[C@H]1C[C@@H]2CC[C@@H](C)[C@@](O)(O2)C(=O)C(=O)N2CCCC[C@H]2C(=O)O[C@H]([C@H](C)C[C@@H]2CC[C@@H](OCCO)[C@H](OC)C2)CC(=O)[C@H](C)/C=C(\C)[C@@H](O)[C@@H](OC)C(=O)[C@H](C)C[C@H](C)/C=C/C=C/C=C/1C [Everolimus] | strong synergy | Synergism | Synergism. | Synergism |  |  |
| 1.24 | 2.36 | 1.21 | 2.43 |  | 0.86 | 0.94 | Nc1cc(C(F)(F)F)c(-c2cc(N3CCOCC3)nc(N3CCOCC3)n2)cn1 [BKM-120, 5-[2,6-Di(4-morpholinyl)-4-pyrimidinyl]-4-(trifluoromethyl)-2-pyridinamine] | strong synergy | Synergism (strong) | None | Synergism (moderate) |  |  |
| 0.80 | 0.44 | 1.10 | 0.50 |  | 0.72 | 1.36 | CC(=O)Nc1cccc(-n2c(=O)n(C3CC3)c(=O)c3c(Nc4ccc(I)cc4F)n(C)c(=O)c(C)c32)c1 [Trametinib] |  |  |  |  | 0.003 to 0.2 |  |
|  |  |  |  |  |  |  | O=C1[O][Pt]2([NH][C@@H]3CCCC[C@H]3[NH]2)[O]C1=O [Oxaliplatin] |  |  |  |  |  | synergy |
| 0.76 | 0.69 | 0.91 | 0.97 |  | 0.72 | 0.80 | Nc1ccn([C@@H]2O[C@H](CO)[C@@H](O)C2(F)F)c(=O)n1 [Gemcitabine] | insignificant synergism or antagonism | None | None | None |  |  |
